Reference: ChEMBL document CHEMBL3351512, “Studies on molecular properties prediction and histamine H3 receptor affinities of novel ligands with uracil-based motifs” (Eur J Med Chem, 2014)

Biological target: Histamine H3 receptor (Homo sapiens, UniProt Q9Y5N1)
Assay: Displacement of [3H]N-alpha-Methylhistamine from human recombinant H3 receptor expressed in HEK293 cells by competitive binding assay
Format: cell-based
Conditions: not given

Sequence of Histamine H3 receptor (Homo sapiens, UniProt Q9Y5N1) (Q9Y5N1 whole entry): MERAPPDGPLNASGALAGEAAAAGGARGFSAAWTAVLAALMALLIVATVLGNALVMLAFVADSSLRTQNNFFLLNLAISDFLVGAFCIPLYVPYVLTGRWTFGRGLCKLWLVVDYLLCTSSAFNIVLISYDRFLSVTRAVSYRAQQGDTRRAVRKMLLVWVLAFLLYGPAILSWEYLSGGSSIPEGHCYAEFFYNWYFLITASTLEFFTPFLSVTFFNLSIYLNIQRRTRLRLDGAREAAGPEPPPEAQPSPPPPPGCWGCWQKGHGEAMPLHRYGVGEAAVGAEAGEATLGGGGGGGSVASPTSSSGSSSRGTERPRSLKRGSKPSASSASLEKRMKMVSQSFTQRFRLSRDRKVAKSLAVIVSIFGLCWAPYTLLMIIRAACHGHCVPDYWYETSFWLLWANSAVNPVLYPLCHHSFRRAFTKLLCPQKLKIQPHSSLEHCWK

| Compound | IC50 [nM] |
| --- | --- |
| CCN1CCc2nc(OC3CCN(C4CCC4)CC3)ncc2C1=O | ≤ 50 |

Same assay, conditions: read-out: Ki

| Compound | Ki [nM] |
| --- | --- |
| O=c1cccnn1-c1ccc2nc(N3CC[C@@H](N4CCCCC4)C3)sc2c1 | < 25 |

Same assay, conditions: read-out: pKi (converted)

| Compound | Ki [nM] |
| --- | --- |
| CC(C)N1CCCN(C(=O)C2CCN(c3ccc(C(F)(F)F)nc3)CC2)CC1 | 0.126 |
| O=C(c1ccccc1)n1c(=O)ccn(CCCN2CCCCC2)c1=O | 1150 |
| O=C(c1ccccc1)n1c(=O)ccn(Cc2ccc(OCCCN3CCCCC3)cc2)c1=O | 7.24 |
| Cc1cn(Cc2ccc(OCCCN3CCCCC3)cc2)c(=O)n(C(=O)c2ccccc2)c1=O | 31.6 |
| Cc1c(C)n(Cc2ccc(OCCCN3CCCCC3)cc2)c(=O)n(C(=O)c2ccccc2)c1=O | 34.7 |
| CC(C)(C)OC(=O)n1ccc(=O)n(Cc2ccc(OCCCN3CCCCC3)cc2)c1=O | 50.1 |
| Cc1cn(C(=O)OC(C)(C)C)c(=O)n(Cc2ccc(OCCCN3CCCCC3)cc2)c1=O | 46.8 |
| Cc1c(C)n(C(=O)OC(C)(C)C)c(=O)n(Cc2ccc(OCCCN3CCCCC3)cc2)c1=O | 38 |
| O=c1ccn(CCCN2CCCCC2)c(=O)[nH]1 | 7080 |
| O=c1ccn(Cc2ccc(OCCCN3CCCCC3)cc2)c(=O)[nH]1 | 12.9 |
| Cc1cn(Cc2ccc(OCCCN3CCCCC3)cc2)c(=O)[nH]c1=O | 7.08 |
| Cc1c(C)n(Cc2ccc(OCCCN3CCCCC3)cc2)c(=O)[nH]c1=O | 17.8 |
| O=c1cc[nH]c(=O)n1Cc1ccc(OCCCN2CCCCC2)cc1 | 28.8 |
| Cc1c[nH]c(=O)n(Cc2ccc(OCCCN3CCCCC3)cc2)c1=O | 63.1 |

Biological target: Histamine H3 receptor (Rattus norvegicus, UniProt Q9QYN8)
Assay: Binding affinity to rat H3 receptor
Conditions: not given

Sequence of Histamine H3 receptor (Rattus norvegicus, UniProt Q9QYN8) (Q9QYN8 whole entry): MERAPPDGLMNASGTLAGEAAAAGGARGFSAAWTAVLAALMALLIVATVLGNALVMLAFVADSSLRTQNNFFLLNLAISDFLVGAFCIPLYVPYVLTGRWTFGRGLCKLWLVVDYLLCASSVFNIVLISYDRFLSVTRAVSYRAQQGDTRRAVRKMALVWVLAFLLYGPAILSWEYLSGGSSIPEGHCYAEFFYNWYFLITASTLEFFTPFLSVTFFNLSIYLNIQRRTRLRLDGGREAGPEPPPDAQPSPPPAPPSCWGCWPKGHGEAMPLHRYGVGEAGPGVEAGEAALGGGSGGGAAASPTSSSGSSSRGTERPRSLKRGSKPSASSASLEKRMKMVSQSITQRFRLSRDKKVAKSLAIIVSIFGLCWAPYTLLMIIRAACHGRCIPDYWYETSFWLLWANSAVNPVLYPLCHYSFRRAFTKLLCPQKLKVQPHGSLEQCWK

| Compound | Ki [nM] |
| --- | --- |
| C[C@H]1CCCN1CCCOc1ccc(/C(CN2CCCCC2=O)=N/OC(C)(C)C)cc1 | < 100 |
